Laboratory results taken from ChEMBL document CHEMBL6177986, “A Perspective on the Strategic Application of Deconstruction-Reconstruction in Drug Discovery” (J Med Chem, 2025).

How the values were obtained:
[1] = molecular target: Phosphatidylinositol 4,5-bisphosphate 3-kinase catalytic subunit alpha isoform (Homo sapiens, UniProt P42336); assay: Inhibition of PI3Kalpha (unknown origin)
[2] = molecular target: Phosphatidylinositol 4,5-bisphosphate 3-kinase catalytic subunit gamma isoform (Homo sapiens, UniProt P48736); assay: Inhibition of PI3Kgamma (unknown origin)
Phosphatidylinositol 4,5-bisphosphate 3-kinase catalytic subunit gamma isoform, sequence (P48736 whole entry, canonical isoform): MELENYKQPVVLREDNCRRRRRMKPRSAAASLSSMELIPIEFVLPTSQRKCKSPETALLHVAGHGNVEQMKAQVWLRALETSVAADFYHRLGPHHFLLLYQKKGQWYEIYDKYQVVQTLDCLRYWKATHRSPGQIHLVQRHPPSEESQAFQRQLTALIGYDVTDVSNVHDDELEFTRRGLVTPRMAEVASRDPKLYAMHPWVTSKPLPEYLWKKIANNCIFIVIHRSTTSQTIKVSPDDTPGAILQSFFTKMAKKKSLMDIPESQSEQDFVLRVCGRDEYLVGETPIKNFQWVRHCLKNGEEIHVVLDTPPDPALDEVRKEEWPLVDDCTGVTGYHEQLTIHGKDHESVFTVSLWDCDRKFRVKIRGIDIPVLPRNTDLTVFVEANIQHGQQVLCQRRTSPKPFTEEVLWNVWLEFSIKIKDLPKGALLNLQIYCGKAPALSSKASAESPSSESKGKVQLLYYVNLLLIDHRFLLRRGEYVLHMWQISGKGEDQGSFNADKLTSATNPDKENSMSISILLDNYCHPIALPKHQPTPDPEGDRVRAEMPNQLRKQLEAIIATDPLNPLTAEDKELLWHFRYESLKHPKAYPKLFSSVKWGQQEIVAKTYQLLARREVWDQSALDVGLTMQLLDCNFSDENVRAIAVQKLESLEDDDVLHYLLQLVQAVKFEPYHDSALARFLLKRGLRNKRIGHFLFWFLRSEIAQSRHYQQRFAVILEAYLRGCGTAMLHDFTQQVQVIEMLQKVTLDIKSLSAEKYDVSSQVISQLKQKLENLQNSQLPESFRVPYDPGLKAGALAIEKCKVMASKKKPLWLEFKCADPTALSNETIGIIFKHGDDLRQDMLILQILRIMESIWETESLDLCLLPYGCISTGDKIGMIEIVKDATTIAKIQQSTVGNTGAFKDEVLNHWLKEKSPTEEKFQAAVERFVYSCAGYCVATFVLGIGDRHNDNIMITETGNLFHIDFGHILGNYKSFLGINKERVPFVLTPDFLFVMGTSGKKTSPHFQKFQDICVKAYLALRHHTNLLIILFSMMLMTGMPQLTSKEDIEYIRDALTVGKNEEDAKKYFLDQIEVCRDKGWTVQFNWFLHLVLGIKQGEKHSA

[3] = molecular target: T1, Phosphatidylinositol 4,5-bisphosphate 3-kinase catalytic subunit delta isoform (Homo sapiens, UniProt O00329); assay: Inhibition of PI3Kdelta (unknown origin)
T1 sequence (O00329 whole entry): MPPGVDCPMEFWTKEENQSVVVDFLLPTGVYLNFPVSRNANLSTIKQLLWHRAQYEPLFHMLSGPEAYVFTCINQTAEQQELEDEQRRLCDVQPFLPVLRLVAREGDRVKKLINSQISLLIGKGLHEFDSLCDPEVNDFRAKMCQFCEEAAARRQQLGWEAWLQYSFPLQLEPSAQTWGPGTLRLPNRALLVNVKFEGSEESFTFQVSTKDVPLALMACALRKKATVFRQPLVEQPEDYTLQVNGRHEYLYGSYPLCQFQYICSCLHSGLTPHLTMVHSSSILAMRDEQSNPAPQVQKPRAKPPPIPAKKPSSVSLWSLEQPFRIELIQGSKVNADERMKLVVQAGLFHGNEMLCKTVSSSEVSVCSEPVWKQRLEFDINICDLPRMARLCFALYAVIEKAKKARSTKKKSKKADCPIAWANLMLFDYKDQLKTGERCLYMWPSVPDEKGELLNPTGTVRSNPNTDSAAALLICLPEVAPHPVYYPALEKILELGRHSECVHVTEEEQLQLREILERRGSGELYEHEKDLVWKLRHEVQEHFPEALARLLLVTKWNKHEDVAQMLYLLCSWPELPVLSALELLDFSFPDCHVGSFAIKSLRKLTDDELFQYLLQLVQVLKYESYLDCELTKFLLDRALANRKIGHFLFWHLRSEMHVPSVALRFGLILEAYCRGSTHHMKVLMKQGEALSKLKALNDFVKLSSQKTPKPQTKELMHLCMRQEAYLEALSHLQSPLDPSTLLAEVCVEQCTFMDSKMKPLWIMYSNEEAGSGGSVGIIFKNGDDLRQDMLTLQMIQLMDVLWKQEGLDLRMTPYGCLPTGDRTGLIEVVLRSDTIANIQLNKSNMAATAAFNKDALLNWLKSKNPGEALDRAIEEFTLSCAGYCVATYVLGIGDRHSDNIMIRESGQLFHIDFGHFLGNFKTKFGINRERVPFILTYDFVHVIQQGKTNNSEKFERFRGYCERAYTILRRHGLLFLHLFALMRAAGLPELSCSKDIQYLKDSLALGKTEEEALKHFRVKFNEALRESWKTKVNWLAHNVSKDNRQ

[4] = molecular target: Phosphatidylinositol 4,5-bisphosphate 3-kinase catalytic subunit beta isoform (Homo sapiens, UniProt P42338); assay: Inhibition of PI3Kbeta (unknown origin)
Phosphatidylinositol 4,5-bisphosphate 3-kinase catalytic subunit beta isoform, sequence (P42338 whole entry, canonical isoform): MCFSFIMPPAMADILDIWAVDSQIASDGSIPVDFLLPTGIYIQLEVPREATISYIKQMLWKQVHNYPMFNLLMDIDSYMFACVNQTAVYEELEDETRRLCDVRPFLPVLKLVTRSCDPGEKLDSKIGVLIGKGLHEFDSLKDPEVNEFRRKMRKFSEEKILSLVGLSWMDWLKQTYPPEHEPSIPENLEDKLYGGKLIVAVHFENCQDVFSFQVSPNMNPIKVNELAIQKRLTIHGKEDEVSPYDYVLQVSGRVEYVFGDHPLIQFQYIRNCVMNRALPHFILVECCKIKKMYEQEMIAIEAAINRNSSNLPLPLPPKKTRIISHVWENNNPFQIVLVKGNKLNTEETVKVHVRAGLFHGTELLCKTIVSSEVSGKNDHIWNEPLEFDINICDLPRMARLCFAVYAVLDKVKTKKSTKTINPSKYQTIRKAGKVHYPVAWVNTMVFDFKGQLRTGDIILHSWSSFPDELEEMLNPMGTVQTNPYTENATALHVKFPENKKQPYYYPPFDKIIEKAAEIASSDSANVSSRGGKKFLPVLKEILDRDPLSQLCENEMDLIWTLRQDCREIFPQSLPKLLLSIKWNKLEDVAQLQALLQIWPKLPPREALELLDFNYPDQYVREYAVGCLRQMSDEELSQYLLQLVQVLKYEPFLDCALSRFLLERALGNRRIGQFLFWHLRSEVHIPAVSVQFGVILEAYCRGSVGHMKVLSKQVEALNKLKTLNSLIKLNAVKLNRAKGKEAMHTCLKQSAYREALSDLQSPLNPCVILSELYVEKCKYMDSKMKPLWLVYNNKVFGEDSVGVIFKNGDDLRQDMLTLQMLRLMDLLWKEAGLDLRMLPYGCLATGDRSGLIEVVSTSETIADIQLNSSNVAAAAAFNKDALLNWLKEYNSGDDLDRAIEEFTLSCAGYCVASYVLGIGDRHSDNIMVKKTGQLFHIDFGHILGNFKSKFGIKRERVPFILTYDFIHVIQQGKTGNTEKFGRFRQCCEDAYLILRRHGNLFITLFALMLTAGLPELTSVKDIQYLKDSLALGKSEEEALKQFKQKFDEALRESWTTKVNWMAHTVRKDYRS

Phosphatidylinositol 4,5-bisphosphate 3-kinase catalytic subunit alpha isoform, sequence (P42336 whole entry, canonical isoform): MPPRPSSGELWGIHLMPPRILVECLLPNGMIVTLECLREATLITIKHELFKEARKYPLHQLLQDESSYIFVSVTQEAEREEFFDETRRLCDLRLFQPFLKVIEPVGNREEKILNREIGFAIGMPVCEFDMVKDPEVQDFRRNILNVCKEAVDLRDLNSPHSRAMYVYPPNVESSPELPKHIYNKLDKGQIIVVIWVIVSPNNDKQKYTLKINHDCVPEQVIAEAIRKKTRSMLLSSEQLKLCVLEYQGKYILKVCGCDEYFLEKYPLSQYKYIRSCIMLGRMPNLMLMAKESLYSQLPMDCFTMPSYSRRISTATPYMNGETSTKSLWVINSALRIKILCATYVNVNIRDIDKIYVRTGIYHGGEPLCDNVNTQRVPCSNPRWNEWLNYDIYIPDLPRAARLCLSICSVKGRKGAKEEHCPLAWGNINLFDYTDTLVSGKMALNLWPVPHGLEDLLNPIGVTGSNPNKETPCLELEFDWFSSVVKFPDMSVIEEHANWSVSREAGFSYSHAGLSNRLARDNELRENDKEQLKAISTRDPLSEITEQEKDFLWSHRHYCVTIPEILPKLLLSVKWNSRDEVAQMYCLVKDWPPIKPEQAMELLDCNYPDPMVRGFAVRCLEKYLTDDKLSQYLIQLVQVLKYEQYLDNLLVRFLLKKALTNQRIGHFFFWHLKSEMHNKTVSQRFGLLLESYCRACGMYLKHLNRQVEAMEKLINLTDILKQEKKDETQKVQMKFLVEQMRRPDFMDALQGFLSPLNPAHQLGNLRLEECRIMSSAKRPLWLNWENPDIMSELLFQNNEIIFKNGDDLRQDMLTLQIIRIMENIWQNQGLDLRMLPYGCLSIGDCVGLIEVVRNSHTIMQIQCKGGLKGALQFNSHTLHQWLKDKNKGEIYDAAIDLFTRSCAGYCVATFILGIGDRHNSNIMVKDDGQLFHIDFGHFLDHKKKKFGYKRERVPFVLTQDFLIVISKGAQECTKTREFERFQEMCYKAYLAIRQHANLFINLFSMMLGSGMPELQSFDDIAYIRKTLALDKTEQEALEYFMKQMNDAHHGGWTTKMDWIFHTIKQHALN

SMILES | IC50 [1] [nM] | IC50 [2] [nM] | IC50 [3] [nM] | IC50 [4] [nM]
COc1ncc(-c2ccncc2)cc1NS(C)(=O)=O | 6300 | 2500 | 250 | 790
c1cc(-c2ccncc2)c2cc[nH]c2c1 | > 50000 | > 50000 |  | > 50000
c1cc(-c2ccc3ccncc3c2)c2cc[nH]c2c1 | > 32000 |  |  | 
COc1ncc(-c2ccc3ccncc3c2)cc1NS(C)(=O)=O | 2500 | 790 | 160 | 2500
COc1ncc(C2=CCOCC2)cc1NS(=O)(=O)c1cn(Cc2ccccc2)c(C)n1 |  |  | 6 | 
